This test concerns the target E3 ubiquitin-protein ligase Mdm2 (Homo sapiens, UniProt Q00987). The test is described as follows: Inhibition of GST-tagged MDM2 binding to p53 by ELISA. (An ELISA detects its analyte on a solid surface through an enzyme-linked reagent.)

The structures appear in SMILES notation.

Sequence of E3 ubiquitin-protein ligase Mdm2 (Q00987 whole entry): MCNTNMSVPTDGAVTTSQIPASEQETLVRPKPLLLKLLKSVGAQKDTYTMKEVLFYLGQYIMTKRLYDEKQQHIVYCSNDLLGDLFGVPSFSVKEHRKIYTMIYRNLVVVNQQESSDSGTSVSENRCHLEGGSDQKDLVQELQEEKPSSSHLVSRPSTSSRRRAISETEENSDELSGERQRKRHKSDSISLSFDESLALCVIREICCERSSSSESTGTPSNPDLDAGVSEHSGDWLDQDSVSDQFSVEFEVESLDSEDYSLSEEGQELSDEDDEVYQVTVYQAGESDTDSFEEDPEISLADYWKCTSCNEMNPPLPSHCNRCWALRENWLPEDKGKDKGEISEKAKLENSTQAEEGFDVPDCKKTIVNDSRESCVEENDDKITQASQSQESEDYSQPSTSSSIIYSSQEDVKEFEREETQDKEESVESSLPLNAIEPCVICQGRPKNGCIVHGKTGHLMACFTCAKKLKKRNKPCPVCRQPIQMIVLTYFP

In turn, `O=C1CN(C(=O)C2=C(C3CC3)N3C(=N[C@@H](c4ccc(Cl)cc4)[C@H]3c3ccc(Cl)cc3)S2)CCN1` (racemic) displayed an IC50 of 9500 nM. This lies in the single-digit micromolar range. Under `CC(C)(C)C1=C(C(=O)N2CCNC(=O)C2)SC2=N[C@@H](c3ccc(Cl)cc3)[C@@H](c3ccc(Cl)cc3)N21` (racemic) stands 3000 nM; under `COCC1=C(C(=O)N2CCNC(=O)C2)SC2=N[C@@H](c3ccc(Cl)cc3)[C@@H](c3ccc(Cl)cc3)N21` (racemic), 7100 nM; under `CC(C)C1=C(C(=O)N2CCN(CCO)CC2)SC2=N[C@@H](c3ccc(Cl)cc3)[C@@H](c3ccc(Cl)cc3)N21` (racemic), 1800 nM. As for `CC(C)C1=C(C(=O)N2CCNC(=O)CC2)SC2=N[C@@H](c3ccc(Cl)cc3)[C@@H](c3ccc(Cl)cc3)N21` (racemic), the IC50 came out at 1100 nM. As for `CC1=C(C(=O)N2CCNC(=O)C2)SC2=N[C@@H](c3ccc(Cl)cc3)[C@@H](c3ccc(Cl)cc3)N21` (racemic), the IC50 was found to be 2700 nM. Under `CC(C)C1=C(C(=O)N2CCNC(=O)C2)SC2=NC(c3ccc(Cl)cc3)C(c3ccc(Cl)cc3)N21` (single isomer, unassigned; (-)) stands 11900 nM; under `CC(C)C1=C(C(=O)N2CCOCC2)SC2=N[C@@H](c3ccc(Cl)cc3)[C@@H](c3ccc(Cl)cc3)N21` (racemic), 340 nM. `CC(=O)N1CCN(C(=O)C2=C(C(C)C)N3C(=N[C@@H](c4ccc(Cl)cc4)[C@H]3c3ccc(Cl)cc3)S2)CC1` (racemic) returned an IC50 of 840 nM. This IC50 is about 2.5-fold higher than that of the compound before.

`CC(C)C1=C(C(=O)N2CCNC(=O)C2)SC2=NC(c3ccc(Cl)cc3)C(c3ccc(Cl)cc3)N21` (single isomer, unassigned; (+)) showed an IC50 of 160 nM. Under `CC(C)C1=C(C(=O)N2CCNC(=O)C2)SC2=N[C@@H](c3ccc(Cl)cc3)[C@@H](c3ccc(Cl)cc3)N21` (racemic) stands 260 nM. Under `CC(C)C1=C(C(=O)N2CCC(C(=O)N(C)C)CC2)SC2=N[C@@H](c3ccc(Cl)cc3)[C@@H](c3ccc(Cl)cc3)N21` (racemic) stands 4400 nM; under `CC(C)C1=C(C(=O)N2CCN(C)CC2)SC2=N[C@@H](c3ccc(Cl)cc3)[C@@H](c3ccc(Cl)cc3)N21` (racemic), 1200 nM. `CCCC1=C(C(=O)N2CCNC(=O)C2)SC2=N[C@@H](c3ccc(Cl)cc3)[C@@H](c3ccc(Cl)cc3)N21` (racemic) showed a 50% inhibitory concentration (IC50) of 3100 nM.

`CCC1=C(C(=O)N2CCNC(=O)C2)SC2=N[C@@H](c3ccc(Cl)cc3)[C@@H](c3ccc(Cl)cc3)N21` (racemic) yielded a 50% inhibitory concentration (IC50) of 1800 nM. `CC(C)C1=C(C(=O)N2C[C@@H](C)N[C@@H](C)C2)SC2=N[C@@H](c3ccc(Cl)cc3)[C@@H](c3ccc(Cl)cc3)N21` (racemic) came in with a 50% inhibitory concentration (IC50) of 140 nM.

The IC50 is the concentration that gives 50% inhibition. Low readings indicate higher potency, high ones lower potency.

The values are drawn from ChEMBL document CHEMBL2150912, “Discovery of novel dihydroimidazothiazole derivatives as p53-MDM2 protein-protein interaction inhibitors: synthesis, biological evaluation and structure-activity relationships” (Bioorg Med Chem Lett, 2012).
